# Assay results as given in patent publication US20230172878A1, “COMPOSITIONS AND METHODS FOR TREATING CYTOKINE STORMS” (priority 2020, published 2023).
# Legend:
# mice [1] = settings: cited from earlier work
# rats = settings: 10× higher doses than the human equivalent dose proposed for clinical trials; cited from earlier work
# mice [2] = settings: 10× higher doses than the human equivalent dose proposed for clinical trials; cited from earlier work
# dogs = settings: 10× higher doses than the human equivalent dose proposed for clinical trials; cited from earlier work
# PBMCs [3] = experiment: Cytokine production by morpholinofructose-stimulated PBMCs from two donors; format: cell-based, human
# Procedure: For FIGS. 2 through 7, cells from two donors were used, each in a separate independent study. Cytokines secreted in the media by the cells were measured at 2, 4, 6, 24 and 48 hours.
# In the following examples cells were stimulated known cytokine stimulants, either lipopolysaccharide (“LPS”) or morpholino fructose. […] Varying levels of meglumine, or a salt thereof were then administered to the stimulated cells and the resulting cytokine levels measured.
# Peripheral blood mononuclear cells (“PBMC”s) from two donors were used to measure cytokine levels in response to various inputs. For each donor, one group of PBMCs were untreated. One group was allowed to remain in cell culture. A different group was treated with 40 mM meglumine. Another group was treated with morpholinofructose at 40 mM concentration. Three remaining groups were treated with morpholinofructose at 40 mM concentration and meglumine at concentration of 20 mM, 40 mM, and 80 mM. The groups were allowed to incubate for up to 50 hours. Cytokines secreted in the media by the cells were measured at 2, 4, 6, 24 and 48 hours The percentage of cells positive for IL-6 was determined by flow cytometry.
# The same protocol was used to measure the addition of meglumine to reduce the levels of TNF-α (FIGS. 3A and 3B), MIP-1α (FIGS. 4A and 4B), MCP-1(FIGS. 5A and 5B), and MCP-1 ((FIGS. 6A and 6B).
# PBMCs [4] = experiment: LPS-stimulated cytokine-positive PBMCs, flow cytometry; format: cell-based, human; settings: 4 hours
# Procedure: Lipopolysaccharide (LPS) at […] concentration was used as a positive control for cytokine production in PBMCs. Meglumine was added at 40 mM and the cells allowed to incubate for 4 hours before sorting. […] (p<0.05 vs unstimulated and p<0.05 vs LPS). FIG. 8. The same protocol was sued to measure IL-1α production. […] FIG. 9.
# THP-1 cells = experiment: LPS-induced cytokine secretion by THP-1 cells; format: cell-based, human; settings: LPS 25 ng/ml, 24 hours
# Procedure: THP-1 cells (a human monocytic cell line derived from an acute monocytic leukemia patient) were cultured to 80% confluence. The THP-1 cells were then treated with LPS at 25 ng/ml to induce cytokine secretion. Cells were treated with either various concentration of meglumine. Tissue culture media was harvested at 24 hours and the levels of cytokines were determined.
smiles,measurement,setting,value
"COc1cc2nc(N3CCN(C(=O)c4ccco4)CC3)nc(N)c2cc1OC [Prazosin, prazosin]",catecholamines and cytokine responses,mice [1],reduces
same,survival,mice [1]; following various hyper-inflammatory stimuli,markedly increased survival
CNC[C@H](O)[C@@H](O)[C@H](O)[C@H](O)CO.Cl [meglumine HCl],safety,rats,safe
same,safety,mice [2],safe
same,safety,dogs,safe
"CNC[C@H](O)[C@@H](O)[C@H](O)[C@H](O)CO [meglumine, (2R,3R,4R,5S)-6-(Methylamino)hexane-1,2,3,4,5-pentol]",IL-6 levels in the PBMCs,"PBMCs [3]; 40 mM morpholinofructose plus meglumine 20, 40, 80 mM, measured at 2, 4, 6, 24 and 48 hours",reduced the IL-6 levels
same,TNF-α production,"PBMCs [3]; 40 mM morpholinofructose plus various concentrations of meglumine, FIGS. 3A, 3B",decreased
same,MIP 1α production,"PBMCs [3]; 40 mM morpholinofructose plus various concentrations of meglumine, FIGS. 4A, 4B",decreased
same,MCP 1 production,"PBMCs [3]; 40 mM morpholinofructose plus various concentrations of meglumine, FIGS. 5A, 5B",decreased
same,IL-10 production,"PBMCs [3]; 40 mM morpholinofructose plus various concentrations of meglumine, FIGS. 6A, 6B",decreased
same,LPS-stimulated increase in the percentage of IL-6 positive PBMCs,"PBMCs [4]; LPS 40 mM, meglumine 40 mM, p<0.05 vs unstimulated and vs LPS, FIG. 8",significantly reduced
same,percentage of PBMCs expressing IL-1α,"PBMCs [4]; combination of LPS and meglumine 40 mM, FIG. 9",significantly increased
same,lowest concentration at which cytokine reduction was exhibited,THP-1 cells,10 mm
same,secretion of IL-8,"THP-1 cells; meglumine at high concentrations, FIG. 11",ability to interfere with the secretion
same,secretion of MIP-1α,"THP-1 cells; meglumine at high concentrations, FIG. 13",ability to interfere with the secretion
same,secretion of MIP-1β,"THP-1 cells; meglumine at high concentrations, FIG. 14",ability to interfere with the secretion
same,secretion of VEGF,"THP-1 cells; meglumine at high concentrations, FIG. 15",ability to interfere with the secretion
"O=C(CN1CCOCC1)[C@@H](O)[C@H](O)[C@H](O)CO [morpholinofructose, reference compound]",IL-6 production versus control cells,"PBMCs [3]; human PBMCs incubated with 40 mM morpholinofructose, FIG. 7",significantly more IL-6 than control cells
